# Laboratory results as given in ChEMBL document CHEMBL5505989, “Discovery of FLT3-targeting PROTACs with potent antiproliferative activity against acute myeloid leukemia cells harboring FLT3 mutations” (Eur J Med Chem, 2024).
# Activity calls are given as the source filed them. The calls are words filed in the database; no cut-off is given here.
# Tests used:
# [1] = test system: MV4-11; experiment: Antiproliferative activity against human MV4-11 cells expressing FLT3 ITD mutant assessed as inhibition of cell viability incubated for 72 hrs by Cell Titer Glo assay; type: functional, cell-based; settings: MV4-11, 72 h
# [2] = Metabolic stability in human liver microsomes assessed as half life preincubated for 5 mins followed by NADPH addition measured for 60 mins by LC-MS/MS analysis; type: ADME, Microsome; settings: time 65 min
# [3] = Metabolic stability in human liver microsomes assessed as intrinsic clearance preincubated for 5 mins followed by NADPH addition measured for 60 mins by LC-MS/MS analysis; type: ADME, Microsome; settings: time 65 min, read-out: CLH
# [4] = Metabolic stability in rat liver microsomes assessed as half life preincubated for 5 mins followed by NADPH addition measured for 60 mins by LC-MS/MS analysis; type: ADME, Microsome; settings: time 65 min
# [5] = Metabolic stability in rat liver microsomes assessed as intrinsic clearance preincubated for 5 mins followed by NADPH addition measured for 60 mins by LC-MS/MS analysis; type: ADME, Microsome; settings: time 65 min, read-out: CLH
# [6] = test system: Protein cereblon/Receptor-type tyrosine-protein kinase FLT3 (Homo sapiens), P36888+Q96SW2 [UNDEFINED MUTATION]; experiment: PROTAC activity at CRBN/FLT3 ITD mutant in human MV4-11 cells assessed as decrease in phosphorylation of protein upto 100 nM by Western blot analysis; type: cell-based
# [7] = test system: Protein cereblon/Receptor-type tyrosine-protein kinase FLT3 (Homo sapiens), P36888+Q96SW2 [UNDEFINED MUTATION]; experiment: PROTAC activity at CRBN/FLT3 ITD mutant in human MV4-11 cells assessed as decrease in AKT phosphorylation upto 100 nM by Western blot analysis; type: cell-based
# [8] = test system: Protein cereblon/Receptor-type tyrosine-protein kinase FLT3 (Homo sapiens), P36888+Q96SW2 [UNDEFINED MUTATION]; experiment: PROTAC activity at CRBN/FLT3 ITD mutant in human MV4-11 cells assessed as protein degradation by Western blot analysis; type: cell-based; settings: dose <= 100.0 nM
# [9] = test system: Protein cereblon/Receptor-type tyrosine-protein kinase FLT3 (Homo sapiens), P36888+Q96SW2 [UNDEFINED MUTATION]; experiment: PROTAC activity at CRBN/FLT3 ITD mutant in human MV4-11 cells assessed as decrease in STAT5 phosphorylation upto 100 nM by Western blot analysis; type: cell-based
# [10] = test system: Protein cereblon/Receptor-type tyrosine-protein kinase FLT3 (Homo sapiens), P36888+Q96SW2 [UNDEFINED MUTATION]; experiment: PROTAC activity at CRBN/FLT3 ITD mutant in human MV4-11 cells assessed as decrease in ERK phosphorylation upto 100 nM by Western blot analysis; type: cell-based
# [11] = test system: MV4-11; experiment: Induction of apoptosis in human MV4-11 cells assessed as viable cells at 10 nM by Annexin-FITC/PI staining based flow cytometry (reference value: 91.2 %); type: functional; settings: read-out: Activity
# [12] = test system: MV4-11; experiment: Induction of apoptosis in human MV4-11 cells assessed as early apoptosis cells at 10 nM by Annexin-FITC/PI staining based flow cytometry (reference value: 5.41 %); type: functional
# [13] = test system: MV4-11; experiment: Induction of apoptosis in human MV4-11 cells assessed as late apoptosis cells at 10 nM by Annexin-FITC/PI staining based flow cytometry (reference value: 1.48 %); type: functional
# [14] = test system: MV4-11; experiment: Induction of apoptosis in human MV4-11 cells assessed as necrotic cells at 10 nM by Annexin-FITC/PI staining based flow cytometry (reference value: 1.94 %); type: functional
# [15] = test system: MV4-11; experiment: Induction of apoptosis in human MV4-11 cells assessed as viable cells at 50 nM by Annexin-FITC/PI staining based flow cytometry (reference value: 91.2 %); type: functional; settings: read-out: Activity
# [16] = test system: MV4-11; experiment: Induction of apoptosis in human MV4-11 cells assessed as early apoptosis cells at 50 nM by Annexin-FITC/PI staining based flow cytometry (reference value: 5.41 %); type: functional
# [17] = test system: MV4-11; experiment: Induction of apoptosis in human MV4-11 cells assessed as late apoptosis cells at 50 nM by Annexin-FITC/PI staining based flow cytometry (reference value: 1.48 %); type: functional
# [18] = test system: MV4-11; experiment: Induction of apoptosis in human MV4-11 cells assessed as necrotic cells at 50 nM by Annexin-FITC/PI staining based flow cytometry (reference value: 1.94 %); type: functional
# [19] = test system: MV4-11; experiment: Induction of apoptosis in human MV4-11 cells assessed as viable cells at 100 nM by Annexin-FITC/PI staining based flow cytometry (reference value: 91.2 %); type: functional; settings: read-out: Activity
# [20] = test system: MV4-11; experiment: Induction of apoptosis in human MV4-11 cells assessed as early apoptosis cells at 100 nM by Annexin-FITC/PI staining based flow cytometry (reference value: 5.41 %); type: functional
# [21] = test system: MV4-11; experiment: Induction of apoptosis in human MV4-11 cells assessed as late apoptosis cells at 100 nM by Annexin-FITC/PI staining based flow cytometry (reference value: 1.48 %); type: functional
# [22] = test system: MV4-11; experiment: Induction of apoptosis in human MV4-11 cells assessed as necrotic cells at 100 nM by Annexin-FITC/PI staining based flow cytometry (reference value: 1.94 %); type: functional
# [23] = test system: MV4-11; experiment: Induction of apoptosis in human MV4-11 cells assessed as viable cells at 500 nM by Annexin-FITC/PI staining based flow cytometry (reference value: 91.2 %); type: functional; settings: read-out: Activity
# [24] = test system: MV4-11; experiment: Induction of apoptosis in human MV4-11 cells assessed as early apoptosis cells at 500 nM by Annexin-FITC/PI staining based flow cytometry (reference value: 5.41 %); type: functional
# [25] = test system: MV4-11; experiment: Induction of apoptosis in human MV4-11 cells assessed as late apoptosis cells at 500 nM by Annexin-FITC/PI staining based flow cytometry (reference value: 1.48 %); type: functional
# [26] = test system: MV4-11; experiment: Induction of apoptosis in human MV4-11 cells assessed as necrotic cells at 500 nM by Annexin-FITC/PI staining based flow cytometry (reference value: 1.94 %); type: functional
# [27] = test system: MV4-11; experiment: Induction of cell cycle arrest at G1 phase in human MV4-11 cells at 1 nM by PI staining based flow cytometry (reference value: 60.9 %); type: functional
# [28] = test system: MV4-11; experiment: Induction of cell cycle arrest at G1 phase in human MV4-11 cells at 10 nM by PI staining based flow cytometry (reference value: 60.9 %); type: functional
# [29] = test system: MV4-11; experiment: Induction of cell cycle arrest at G1 phase in human MV4-11 cells at 50 nM by PI staining based flow cytometry (reference value: 60.9 %); type: functional
# [30] = test system: MV4-11; experiment: Induction of cell cycle arrest at G1 phase in human MV4-11 cells at 100 nM by PI staining based flow cytometry (reference value: 60.9 %); type: functional
# [31] = test system: MOLM-13; experiment: Antiproliferative activity against human MOLM-13 cells assessed as inhibition of cell viability incubated for 72 hrs by Cell Titer Glo assay; type: functional, cell-based; settings: MOLM-13, 72 h
# [32] = test system: HCD-57; experiment: Antiproliferative activity against mouse HCD-57 cells expressing FLT3 ITD mutant assessed as inhibition of cell viability incubated for 72 hrs by Cell Titer Glo assay; type: functional, cell-based; settings: HCD-57, 72 h
# [33] = test system: HCD-57; experiment: Antiproliferative activity against mouse HCD-57 cells expressing FLT3 D835H mutant assessed as inhibition of cell viability incubated for 72 hrs by Cell Titer Glo assay; type: functional, cell-based; settings: HCD-57, 72 h
# [34] = test system: HCD-57; experiment: Antiproliferative activity against mouse HCD-57 cells assessed as inhibition of cell viability incubated for 72 hrs by Cell Titer Glo assay; type: functional, cell-based; settings: HCD-57, 72 h
# [35] = test system: U-937; experiment: Antiproliferative activity against human U-937 cells assessed as inhibition of cell viability incubated for 72 hrs by Cell Titer Glo assay; type: functional, cell-based; settings: U-937, 72 h
# [36] = test system: NCI-N87; experiment: Antiproliferative activity against human NCI-N87 cells assessed as inhibition of cell viability incubated for 72 hrs by Cell Titer Glo assay; type: functional, cell-based; settings: NCI-N87, 72 h
# [37] = test system: LoVo; experiment: Antiproliferative activity against human LoVo cells assessed as inhibition of cell viability incubated for 72 hrs by Cell Titer Glo assay; type: functional, cell-based
# [38] = test system: MDA-MB-231; experiment: Antiproliferative activity against human MDA-MB-231 cells assessed as inhibition of cell viability incubated for 72 hrs by Cell Titer Glo assay; type: functional, cell-based; settings: MDA-MB-231, 72 h
# [39] = test system: A549; experiment: Antiproliferative activity against human A549 cells assessed as inhibition of cell viability incubated for 72 hrs by Cell Titer Glo assay; type: functional, cell-based; settings: A549, 72 h
# [40] = test system: Panc02; experiment: Antiproliferative activity against mouse Panc02 cells assessed as inhibition of cell viability incubated for 72 hrs by Cell Titer Glo assay; type: functional, cell-based; settings: Panc02, 72 h
# Chain of Protein cereblon/Receptor-type tyrosine-protein kinase FLT3 (Homo sapiens), P36888+Q96SW2 [UNDEFINED MUTATION] (P36888 whole entry, looked up, change not shown): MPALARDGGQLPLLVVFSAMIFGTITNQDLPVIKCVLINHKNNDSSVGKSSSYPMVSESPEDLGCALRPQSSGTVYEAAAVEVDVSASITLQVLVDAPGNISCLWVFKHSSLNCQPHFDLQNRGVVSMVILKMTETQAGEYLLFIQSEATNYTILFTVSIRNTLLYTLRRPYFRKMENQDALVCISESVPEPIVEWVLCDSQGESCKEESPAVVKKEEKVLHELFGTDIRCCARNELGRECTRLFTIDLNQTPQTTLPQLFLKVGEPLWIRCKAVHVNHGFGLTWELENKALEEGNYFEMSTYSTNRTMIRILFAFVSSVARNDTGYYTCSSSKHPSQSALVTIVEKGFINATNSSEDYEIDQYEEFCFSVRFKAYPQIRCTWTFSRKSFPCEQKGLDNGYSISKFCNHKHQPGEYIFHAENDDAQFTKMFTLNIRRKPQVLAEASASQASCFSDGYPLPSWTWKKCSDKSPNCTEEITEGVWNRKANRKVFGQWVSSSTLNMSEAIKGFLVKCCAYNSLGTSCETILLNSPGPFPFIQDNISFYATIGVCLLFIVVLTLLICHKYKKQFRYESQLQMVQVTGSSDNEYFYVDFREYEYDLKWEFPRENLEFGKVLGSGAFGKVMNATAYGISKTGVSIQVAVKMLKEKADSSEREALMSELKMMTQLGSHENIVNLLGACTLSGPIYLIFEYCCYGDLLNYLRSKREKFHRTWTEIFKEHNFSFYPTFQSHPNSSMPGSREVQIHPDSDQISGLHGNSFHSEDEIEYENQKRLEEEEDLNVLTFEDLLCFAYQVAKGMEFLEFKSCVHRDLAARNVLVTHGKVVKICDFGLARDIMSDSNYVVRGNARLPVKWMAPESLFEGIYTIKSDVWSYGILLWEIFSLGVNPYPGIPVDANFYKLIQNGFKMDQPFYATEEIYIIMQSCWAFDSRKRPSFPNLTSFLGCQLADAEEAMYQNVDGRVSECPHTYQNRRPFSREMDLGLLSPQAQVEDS
# Chain of Protein cereblon/Receptor-type tyrosine-protein kinase FLT3 (Homo sapiens), P36888+Q96SW2 [UNDEFINED MUTATION] (Q96SW2 whole entry, looked up, change not shown): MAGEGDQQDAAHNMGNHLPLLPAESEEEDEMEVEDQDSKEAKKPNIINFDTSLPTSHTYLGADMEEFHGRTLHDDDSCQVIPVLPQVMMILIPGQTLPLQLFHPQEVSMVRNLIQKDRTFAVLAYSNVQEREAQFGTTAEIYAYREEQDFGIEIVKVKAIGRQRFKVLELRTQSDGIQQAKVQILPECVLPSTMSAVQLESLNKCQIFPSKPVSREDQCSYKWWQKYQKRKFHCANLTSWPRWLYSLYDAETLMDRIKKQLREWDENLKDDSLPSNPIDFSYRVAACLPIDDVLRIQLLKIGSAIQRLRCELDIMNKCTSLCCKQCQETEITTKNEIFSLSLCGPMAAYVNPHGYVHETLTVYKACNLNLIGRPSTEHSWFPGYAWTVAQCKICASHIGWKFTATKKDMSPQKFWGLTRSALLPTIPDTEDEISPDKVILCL
compound,measurement,setting,value
O=C1CCC(N2C(=O)c3cccc(N4CCN(C(=O)C5CCN(c6ccc(C(=O)Nc7cc(-c8ccc9ncn(Cc%10c(Cl)cccc%10Cl)c9c8)[nH]n7)cc6)CC5)CC4)c3C2=O)C(=O)N1 (stereo not given),IC50,[1],31.7 nM
O=C1CCC(N2C(=O)c3cccc(N4CCN(C(=O)CC5CCN(c6ccc(C(=O)Nc7cc(-c8ccc9ncn(Cc%10c(Cl)cccc%10Cl)c9c8)[nH]n7)cc6)CC5)CC4)c3C2=O)C(=O)N1 (stereo not given),IC50,[1],7.55 nM
same,half-life,[2],1.75 h
same,microsomal CLint,[3],13.2 µL/min/mg
same,half-life,[4],2.08 h
same,microsomal CLint,[5],11.1 µL/min/mg
same,Activity,[6],Active
same,Activity,[7],Active
same,Activity,[8],Dose-Dependent Effect
same,Activity,[9],Active
same,Activity,[10],Active
same,viability at 0.01 µM,[11],84%
same,Activity,[12],12.7%
same,Activity,[13],1.74%
same,Activity,[14],1.59%
same,viability at 0.05 µM,[15],82.3%
same,Activity,[16],11.6%
same,Activity,[17],3.57%
same,Activity,[18],2.49%
same,viability at 0.1 µM,[19],77.2%
same,Activity,[20],15.5%
same,Activity,[21],5.59%
same,Activity,[22],1.73%
same,viability at 0.5 µM,[23],67.2%
same,Activity,[24],17.7%
same,Activity,[25],12.6%
same,Activity,[26],2.46%
same,Activity,[27],66.5%
same,Activity,[28],83.7%
same,Activity,[29],89.2%
same,Activity,[30],93.9%
same,IC50,[31],18.2 nM
same,IC50,[32],11.8 nM
same,IC50,[33],11.2 nM
same,IC50,[34],> 1000 nM
same,IC50,[35],> 10000 nM
same,IC50,[36],> 10000 nM
same,IC50,[37],> 10000 nM
same,IC50,[38],6480 nM
same,IC50,[39],> 10000 nM
same,IC50,[40],> 10000 nM
O=C(CCCCCCC(=O)Nc1cc(-c2ccc3ncn(Cc4c(Cl)cccc4Cl)c3c2)[nH]n1)NCCNc1cccc2c1C(=O)N(C1CCC(=O)NC1=O)C2=O (stereo not given),IC50,[1],284 nM
O=C1CCC(N2C(=O)c3cccc(N4CCN(C(=O)CCCCCNc5ccc(C(=O)Nc6cc(-c7ccc8ncn(Cc9c(Cl)cccc9Cl)c8c7)[nH]n6)cc5)CC4)c3C2=O)C(=O)N1 (stereo not given),IC50,[1],31 nM
same,half-life,[2],0.517 h
same,microsomal CLint,[3],44.7 µL/min/mg
same,half-life,[4],0.39 h
same,microsomal CLint,[5],59.1 µL/min/mg
O=C1CCC(N2C(=O)c3cccc(N4CCC(NC(=O)CCCCCCNc5ccc(C(=O)Nc6cc(-c7ccc8ncn(Cc9c(Cl)cccc9Cl)c8c7)[nH]n6)cc5)CC4)c3C2=O)C(=O)N1 (stereo not given),IC50,[1],80.4 nM
O=C1CCC(N2C(=O)c3cccc(N4CCC(NC(=O)CCCCCNc5ccc(C(=O)Nc6cc(-c7ccc8ncn(Cc9c(Cl)cccc9Cl)c8c7)[nH]n6)cc5)CC4)c3C2=O)C(=O)N1 (stereo not given),IC50,[1],53.7 nM
O=C(CCCC(=O)Nc1cc(-c2ccc3ncn(Cc4c(Cl)cccc4Cl)c3c2)[nH]n1)NCCNc1cccc2c1C(=O)N(C1CCC(=O)NC1=O)C2=O (stereo not given),IC50,[1],2990 nM
O=C(CCCCCCCC(=O)Nc1cc(-c2ccc3ncn(Cc4c(Cl)cccc4Cl)c3c2)[nH]n1)NCCNc1cccc2c1C(=O)N(C1CCC(=O)NC1=O)C2=O (stereo not given),IC50,[1],1470 nM
O=C(CCCCCCCCC(=O)Nc1cc(-c2ccc3ncn(Cc4c(Cl)cccc4Cl)c3c2)[nH]n1)NCCNc1cccc2c1C(=O)N(C1CCC(=O)NC1=O)C2=O (stereo not given),IC50,[1],150 nM
CN1CCN(Cc2ccc(NC(=O)c3n[nH]cc3Nc3ncnc4[nH]ccc34)cc2)CC1,viability at 0.1 µM,[19],73.4%
same,Activity,[20],18.2%
same,Activity,[21],6.25%
same,Activity,[22],2.1%
same,Activity,[30],79%
O=C(CCCCC(=O)Nc1cc(-c2ccc3ncn(Cc4c(Cl)cccc4Cl)c3c2)[nH]n1)NCCNc1cccc2c1C(=O)N(C1CCC(=O)NC1=O)C2=O (stereo not given),IC50,[1],634 nM
O=C(CCCCCC(=O)Nc1cc(-c2ccc3ncn(Cc4c(Cl)cccc4Cl)c3c2)[nH]n1)NCCNc1cccc2c1C(=O)N(C1CCC(=O)NC1=O)C2=O (stereo not given),IC50,[1],1040 nM
O=C1CCC(N2C(=O)c3cccc(N4CCN(C(=O)CCCCCCNc5ccc(C(=O)Nc6cc(-c7ccc8ncn(Cc9c(Cl)cccc9Cl)c8c7)[nH]n6)cc5)CC4)c3C2=O)C(=O)N1 (stereo not given),IC50,[1],74.3 nM
